Assay results taken from article PMC12051620, “Molecular basis underlying the specificity of an antagonist AA92593 for mammalian melanopsins” (The Journal of Biological Chemistry, 2025).

Experiments:
Assay in all cases: GsX GloSensor assay with Gsα/q11
Format in all cases: cell-based, Branchiostoma lanceolatum
Conditions in all cases: 16.7 μM AA92593, COS-1 cells
[1] = system: lanceolatum melanopsin F189^ECL2W mutant
Excerpt: (§1) We assessed the effect of the antagonist on the mutants using the GsX GloSensor assay with Gsα/q11. […] Furthermore, the double substitution F189^ECL2W/I207^5.42F further increased the susceptibility of the lanceolatum melanopsin to the antagonist by ∼88% (Fig. 7, G, H, and I). The AA92593-induced inhibition of the double mutant F189^ECL2W/I207^5.42F was as efficient as that of human melanopsin (Fig. 7I). […] Taken together, the introduction of Trp-189^ECL2 and Phe-207^5.42 rendered lanceolatum melanopsin highly sensitive to the antagonist (Fig. 7, G, H, and I).
(§2) For GloSensor assay, opsins, GloSensor assay sensor (coded by pGlo-22F), and NanoBiT-tagged G proteins were transiently expressed in COS-1 cells (kindly provided from Dr David Farrens, Oregon Health and Science University) using PEI as described previously ([24], [52]). For the GsX GloSensor assay ([12], [13]), each well of a 96-well assay plate (Corning) was transfected with 50 ng opsin plasmid, 16.7 ng G protein plasmid, 50 ng pGlo-22F plasmid (Promega), and 500 ng PEI in 25 μl Opti-mem and 75 μl Dulbecco's modified Eagle's medium (D-MEM). For NanoBiT G protein dissociation assay, each well of a 96-well assay plate was transfected with 50 ng opsin plasmid, 5 ng Lg-BiT inserted Gqα (Gqα-LgBiT) plasmid, 25 ng Gβ1 plasmid, 25 ng Sm-BiT fused Gγ2 plasmid, 5 ng RIC8A plasmid, and 500 ng PEI in 25 μl Opti-mem and 75 μl D-MEM. For GFP-fluorescence microscopy, a 35-mm cell culture dish (IWAKI) was transfected with 2 μg melanopsin-GFP plasmid and 8 μg PEI in 400 μl Opti-mem and 1.2 ml D-MEM. […]
(§3) The transfected COS-1 cells were incubated at 37 °C, 5% CO2 for 2 days, and the medium was aspirated and exchanged with 50 μl of HBSS (145 mM NaCl, 10 mM D-glucose, 5 mM KCl, 1 mM MgCl2, 1.7 mM CaCl2, 1.5 mM NaHCO3, 10 mM Hepes, pH 7.4), containing 33.3, 20, 10, 2, 0.2, 0.02, 0.002, or 0 μM AA92593, 0.5% dimetyl sulfoxide (DMSO), and 4% (vol/vol) GloSensor cAMP reagent stock solution. […] Then, the cells were incubated at room temperature for 1 h, and luminescence changes were monitored. After incubation of the cells with AA92593, luminescence measurement was interrupted, the plate was ejected, and the cells were added with 50 μl of HBSS containing 0.2 μM 9-cis-retinal. […] Luminescence was measured using GM-2000 or GM-3510 microplate reader (Promega). Luminescence level of each well was measured every 30 s with integration time of 0.6 to 0.9 s. To illuminate opsins, luminescence measurement was interrupted, the plate was ejected, and the plate was illuminated by white light with CN-160 LED video light (light intensity, ∼9 mW/cm^2) (NEEWER). […] After illumination, luminescence measurement was resumed. The measured luminescence levels were normalized to the level at the starting point (time = 0 min). […]

[2] = system: lanceolatum melanopsin A269^6.52S mutant
Excerpt: as §1, §2, §3

[3] = system: lanceolatum melanopsin I207^5.42F mutant
Excerpt: as §1, §2, §3

[4] = system: lanceolatum melanopsin I207^5.42L mutant
Excerpt: as §1, §2, §3

COc1ccc(S(=O)(=O)N2CCCCC2)cc1C [AA92593]
increase in sensitivity to AA92593 vs WT [1]: ~21% | change in sensitivity to AA92593 vs WT [2]: little changes | increase in sensitivity to AA92593 vs WT [3]: ~42% | change in sensitivity to AA92593 vs WT [4]: little changes
